Values quoted from earlier work in patent US20150272935A1, “Use of a Factor Xa Inhibitor for Treating and Preventing Bleeding Events And Related Disorders in Patients Having Sensitivity to Vitamin K Antagonists Used As Anticoagulants” (priority 2014, published 2015).
Where two headings read alike, the source gives them in different places.

Columns and labels:
[1] = rats
[2] = monkeys
CYP2C9*2 = CYP2C9*2 (Homo sapiens, UniProt P11712, R144C); conditions: CYP2C9*2 versus CYP2C9*1
CYP2C9*3 = CYP2C9*3 (Homo sapiens, UniProt P11712, I359L); conditions: CYP2C9*3 versus CYP2C9*1

SMILES: CN1CCc2nc(C(=O)N[C@@H]3C[C@@H](C(=O)N(C)C)CC[C@@H]3NC(=O)C(=O)Nc3ccc(Cl)cn3)sc2C1.Cc1ccc(S(=O)(=O)O)cc1 [Edoxaban]
- oral bioavailability [1]: orally bioavailable
- oral bioavailability [2]: orally bioavailable
- safety and tolerability (doses of up to 90 mg per day): generally safe and well tolerated
- oral bioavailability (human subjects): orally bioavailable

SMILES: CC(=O)CC(c1ccccc1)c1c(O)c2ccccc2oc1=O (stereo not drawn) [Warfarin]
- reduction of warfarin metabolism (CYP2C9*2): about 30%
- reduction of warfarin metabolism (CYP2C9*3): about 90%
